Results: PubChem BioAssay AID743417 (Broad Institute, 2014)
Records with an inconclusive call do not appear. Calls of active or inactive are those of the source.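 How the source made its calls: active means compounds lowering the luciferase signal with a fitted half-maximal dose at most twice their top valid dose (cut at about 30 µM in these data); inconclusive means flat fits with moderate signal loss, or poor fits; inactive means the rest.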

Test system: Clone20 osteoblast Shn3 3'UTR firefly luciferase, 24 h
Test: Shn3 3'UTR reporter inhibitors, dose response, cell-based, Clone20 osteoblasts, luminescence, dry powder, set 2 (AID 743417)

SMILES | AC50
Cc1ccc(-n2cc(CNCCCn3ccnc3C)c(-c3ccc(F)cc3)n2)cc1 | 20.6 µM
CCOc1cc(/C=C2/C(=O)ON=C2C)ccc1OCc1ccccc1F | 6.95 µM
Cn1cc([N+](=O)[O-])c(C(=O)Nc2cc(Oc3ccccc3)cc([N+](=O)[O-])c2)n1 | 5.41 µM
CC(=O)c1cccc(NS(=O)(=O)c2ccc(-c3cnc(C4CC4)o3)cc2)c1 | 5 µM
CCn1c(=NC(=O)CCS(=O)(=O)c2ccccc2)sc2cccc(OC)c21 | 1.28 µM
CN(Cc1nccs1)C(=O)c1cc(COc2cccc3cnccc23)on1 | 2.77 µM
Cc1ccc(N/C(N)=N/c2nc(C)cc(N3CCCCC3)n2)c(C)c1 | 0.891 µM
COc1ccc(N2CCN(C(=O)CN3CCN(c4nc(-c5ccc(F)cc5)cs4)CC3)CC2)cc1 | 1.81 µM
Cc1ccc(C(C)C)cc1NC(=O)Nc1ccc([N+](=O)[O-])cc1 | 7.19 µM
c1ccc(CNc2ncnc3scc(-c4cccs4)c23)nc1 | 3.59 µM
COCc1c(C(=O)Nc2cccc(S(=O)(=O)N3CCCCC3)c2)oc2ccccc12 | 9.63 µM
COc1ccc(C2/C=C\CN(S(=O)(=O)c3ccc(C)cc3)[C@H](Cc3ccccc3)C(=O)N2Cc2ccc(F)cc2)cc1 (some centres not stated) | 12.9 µM
CC(C)CC(N)c1csc(NC(=O)c2cc(C(C)(C)C)nn2Cc2ccccc2)n1 (configuration not stated) | 4.85 µM
COc1ccc(CNC(=O)c2cc3c(C)nc4ccccc4c3o2)c(OC)c1 | 3.22 µM
COc1cc(OC)c(OC)cc1CNc1cc(C)ccc1OC | 18.1 µM
COc1ccc(C(=O)NCCN(C)C)c2nc3ccccc3cc12 | 5.78 µM
CC(C)Cn1c(N)c(C(=O)COC(=O)C2Cc3ccccc3CN2S(C)(=O)=O)c(=O)n(C)c1=O (configuration not stated) | 0.72 µM
O=S(=O)(c1ccc(Cl)cc1)N1CCN(Cc2ccc(O)c3ncccc23)CC1 | 3.01 µM
Cn1nc(-c2ccccn2)nc2c(=O)n(C)c(=O)nc1-2 | 0.493 µM
CCCCCCN1C[C@H](n2cc(-c3ccc(F)cc3)nn2)[C@@H](O)C[C@@H]1c1ccc(Cl)cc1 | 10.3 µM
CC1CC(C)(C)CC2(C1)NC(=O)N(CC(=O)N1CCN(Cc3ccc(C#N)cc3)CC1)C2=O (configuration not stated) | 1.47 µM
C=C1C(=O)[C@]23C[C@H]1CC[C@H]2[C@]1(C)[C@@H](OC(C)=O)CC[C@@](C)(C(=O)OC)[C@H]1C[C@@H]3OC(C)=O | 5.99 µM
COc1ccc(Cl)cc1N/C(N)=N/c1nc(CSc2ccc(C)cc2)cc(=O)[nH]1 | 1.82 µM
COc1ccc(Nc2nc(N3CCCC3)c3ccccc3n2)cc1 | 3.67 µM
O=C(Nc1ccc2nc3n(c(=O)c2c1)CCCCC3)c1c(F)ccc([N+](=O)[O-])c1F | 2.3 µM
COc1ccc(CC(N)c2csc(NC(=O)NC(c3ccccc3)c3ccccc3)n2)cc1 (configuration not stated) | 6.4 µM

SMILES | AC50
CCOc1cc(CNCCCN2CCOCC2)cc(Br)c1OCc1ccccc1Cl | 9.31 µM
CC(=O)NC(c1ccc(C(C)C)cc1)c1ccc2cccnc2c1O (configuration not stated) | 0.528 µM
COc1cc(CC(=O)Nc2nc(-c3ccc(F)c(F)c3)cs2)cc(OC)c1OC | 3.92 µM
C=CCOc1nc2c(c(=O)n(C)c(=O)n2C)n1Cc1ccc(Cl)cc1 | 1.03 µM
CC(C)Cn1c(N)c(C(=O)CSc2ccc3c(c2)OCCO3)c(=O)n(C)c1=O | 0.674 µM
CCC(=O)NC(c1ccc(C)cc1)c1ccc2cccnc2c1O (configuration not stated) | 0.704 µM
CC(Oc1ccc(F)cc1)C(=O)N(CCC1=CCCCC1)c1c(N)n(Cc2ccccc2)c(=O)[nH]c1=O (configuration not stated) | 7.99 µM
CCC(=O)c1cn(CC(=O)Nc2cccc(C)c2C)c2ccccc12 | 1.52 µM
CC1=C(CO)C(=O)OC([C@@H](C)C2CC[C@H]3C4C[C@H]5O[C@]56[C@@H](O)C=CC(=O)[C@]6(C)C4CC[C@]23C)C1 (some centres not stated) | 0.674 µM
CCN(CC)S(=O)(=O)c1cccc(NC(=O)CNc2cccc(S(=O)(=O)N3CCCC3)c2)c1 | 0.317 µM
CCOC(=O)Cn1c(S(=O)(=O)Cc2ccccc2Cl)nc(-c2ccccc2)c1-c1ccccc1 | 9.29 µM
CCc1ccc(OCCNc2cc(N3CCNC(C)C3)ccc2[N+](=O)[O-])cc1 (configuration not stated) | 15.6 µM
CCN(CC)C(=O)c1oc2ccc(S(=O)(=O)N3CC(C)CC(C)C3)cc2c1C (configuration not stated) | 1.02 µM
Cc1ccc(CNC(=O)c2cc(-c3ccccc3C)nn2CC2CC(c3cccnc3)=NO2)cc1 (configuration not stated) | > 70 µM (inactive)
O=S1(=O)C=C(Sc2nnc(-c3ccccc3)o2)c2ccccc21 | 1.7 µM
O=C(Nc1ccc2nc3n(c(=O)c2c1)CCCCC3)c1cc([N+](=O)[O-])ccc1F | 14.1 µM
CCCC(=O)NC(c1ccccc1)c1ccc2cccnc2c1O (configuration not stated) | 1.99 µM
COc1ccc(/C=C/C(=O)c2ccc(C(=O)/C=C/c3ccc(OC)c(OC)c3)cc2)cc1OC | 5.18 µM
Nc1nc(N)c(-c2cccc(C(F)(F)F)c2)c(Cc2cccc(C(F)(F)F)c2)n1 | 3.6 µM
Cc1cccnc1CN1CCN(C(=O)c2cc(COc3ccc4ncccc4c3)on2)CC1 | 2.1 µM
Cn1c(=O)c2[nH]c(CCCCCCCCc3nc4ccccc4[nH]3)nc2n(C)c1=O | 3.98 µM
COc1ccccc1-n1cc([C@@H]2C[C@H]3CN(c4ccccc4)C(=O)[C@]34CCCN24)cn1 | 1.46 µM
Cc1cc(C)n(-c2nc(Nc3ccccc3C(F)(F)F)nc(-n3nc(C)cc3C)n2)n1 | 5.49 µM
CN(Cc1ccc(OC(F)F)cc1)C(=O)c1cccc(S(=O)(=O)N2CCN(c3ccccc3)CC2)c1 | 2.59 µM
Cc1c(C)c2ccc(OCC(=O)Nc3ccccn3)c(C)c2oc1=O | 0.416 µM
COc1ccc(CNC(=O)c2cccc3c(-c4cccnc4)coc23)cc1OC | 0.9 µM
